Measured values: patent US8637237B2, “Methods, compositions, and systems for the identification of species-specific or developmental stage-specific insecticides” (The University of North Carolina at Greensboro, priority 2003, dated 2014)

Biological target: T1, FXR (Rattus norvegicus, UniProt Q62735)
T1 sequence (Q62735 1-469): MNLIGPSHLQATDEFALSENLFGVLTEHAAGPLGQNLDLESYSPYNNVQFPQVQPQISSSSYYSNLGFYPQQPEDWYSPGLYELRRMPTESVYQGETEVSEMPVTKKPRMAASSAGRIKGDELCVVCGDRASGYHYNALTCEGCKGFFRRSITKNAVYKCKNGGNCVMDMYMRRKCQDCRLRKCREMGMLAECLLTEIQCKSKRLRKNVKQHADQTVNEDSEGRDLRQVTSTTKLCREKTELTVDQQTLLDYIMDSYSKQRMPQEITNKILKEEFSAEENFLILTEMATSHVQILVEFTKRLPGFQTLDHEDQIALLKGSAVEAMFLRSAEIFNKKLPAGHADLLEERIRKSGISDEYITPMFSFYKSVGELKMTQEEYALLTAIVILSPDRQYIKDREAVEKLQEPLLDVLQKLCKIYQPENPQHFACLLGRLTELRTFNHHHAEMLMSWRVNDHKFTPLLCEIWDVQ
T1 sequence (P28700 1-467 partner): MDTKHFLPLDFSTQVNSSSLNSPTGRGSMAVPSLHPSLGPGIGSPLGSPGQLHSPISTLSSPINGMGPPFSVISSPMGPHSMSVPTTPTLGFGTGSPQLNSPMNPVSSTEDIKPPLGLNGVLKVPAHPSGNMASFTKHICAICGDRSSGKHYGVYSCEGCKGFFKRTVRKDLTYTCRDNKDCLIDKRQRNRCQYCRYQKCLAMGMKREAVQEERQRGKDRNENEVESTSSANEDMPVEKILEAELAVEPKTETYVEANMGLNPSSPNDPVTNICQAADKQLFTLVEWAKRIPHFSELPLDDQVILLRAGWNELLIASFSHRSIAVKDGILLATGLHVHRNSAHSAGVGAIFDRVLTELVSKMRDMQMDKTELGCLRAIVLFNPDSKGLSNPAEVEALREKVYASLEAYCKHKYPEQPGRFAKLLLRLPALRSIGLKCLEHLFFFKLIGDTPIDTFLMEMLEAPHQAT
Assay: cell-based
Conditions: for FXR-dependent transcription, induction: 7.5 μM
Experimental: These experiments employed a mammalian cell culture system using Chinese hamster ovary cells (CHO) to evaluate the transcriptional function of Drosophila melanogaster EcR and USP using methods described previously (U.S. Patent Application Publication No: 2005/0049230; Henrich et al, 2003). Cells were seeded in 6-well polypropylene culture plates (Falcon) with 10^5 cells per well on the day prior to transfection. Transfection was subsequently performed using either calcium phosphate (Kitareewan et al., 1996, Mol. Biol. Cell, 7:1153-1196) or a GenePorter reagent (Gene Therapy Systems, Inc; San Diego, Calif.) following manufacturer's protocols. Each well received 1.25 μg of (EcRE)5-ΔMTV-CAT (five copies of the hsp27 EcRE inserted into an mouse mammary tumor virus (MTV) promoter upstream of the chloramphenicol acetyltransferase (CAT) gene) or (EcRE)5-ΔMTV-LUC (the same promoter attached to firefly luciferase), 1.25 μg of pCH111 (SV40 early promoter linked to the β-galactosidase gene) to normalize CAT activity, and 0.25 μg of each expression plasmid (EcR, FXR, RXR, USP) that was tested. The cells were incubated with plasmid DNA for seven hours and then washed with 1×PBS. Muristerone A (murA; Alexis Biochemicals) or 20-hydroxyecdysone (20E; Sigma) dissolved in ethanol to a concentration of 10 mM was diluted as necessary to the final assay concentration (FAC) in 2 ml of fresh incubation medium that was then applied to the cells. Similarly, JHIII (Sigma) was dissolved in dimethyl sulfoxide (DMSO) to a concentration of […] and diluted into the incubation medium to its final assay concentration (20, 40, 80, 160 μM). […] A corresponding volume of ethanol and DMSO were added to control cells for all experiments. For all experiments, the cells were allowed to incubate with the medium for 24 hours before collection and cell lysates were prepared by described methods (Kitareewan et al., 1996). Both β-galactosidase and CAT reporter activity were measured based on previously used methods (Kitareewan et al, 1996). Luciferase assays using luciferrin followed the specifications of the manufacturer.
Transcriptional activity, measured as ^14C-chloramphenicol counts (for measuring CAT activity) or relative luciferase activity (RLU) was quantified for each cell lysate. The counts were then normalized by adjusting for differences in β-galactosidase activity, since β-galactosidase expression is controlled by a constitutive promoter and provides an estimate of cell mass. Data were normalized as fold-induction based on differences in reporter gene activity between hormonally treated and control cells.
In these experiments, candidate juvenoids were tested for their ability to activate FXR mediated transcription by transfecting Chinese hamster ovary (CHO) cells using the FXR plasmid, mouse RXRα, and the ΔMTV-(EcRE)5-CAT reporter as described herein. An RXR-dependent CRBPII-CAT reporter plasmid was employed in parallel assays to discern activators specific for this receptor.

[1] = dose 20 μM, 1 = no increase over vehicle

5,11-dimethyltetrahydrochrysene
FXR-dependent activity, induction (dose not stated): activated

CCCCCc1cc(O)c2c(c1)OC(C)(C)[C@@H]1CC=C(C)C[C@@H]21 (single isomer, unassigned) [Δ^8-isomer]
FXR-dependent CAT activity, induction (15 μM): not

CC12CCC(CC1)C(C)(C)O2 [1,8-cineole]
FXR-dependent activity, induction (800 μM): two-fold | FXR ACTIVITY (fold-induction) (dose 400 μM): 2 fold-induction

OCCc1ccccc1O [2-hydroxyphenethyl alcohol, 2-hydroxyphenethlyl alcohol]
FXR-dependent activity, induction (400 μM): 3 fold

C=C(C)CCc1cc(OC)c(OC)cc1O [3,4-dimethoxy-6-isopentenylphenol]
FXR-dependent activity, induction (100 μM): 3 fold

OCCc1cccc(O)c1 [3-hydroxyphenethyl alcohol, 3-hydroxyphenethlyl alcohol]
FXR-dependent activity, induction (400 μM): 3 fold

OCCc1ccc(O)cc1 [4-hydroxyphenethyl alcohol, 4-hydroxyphenethlyl alcohol]
FXR-dependent activity, induction (400 μM): 3 fold

COc1cc2ccc(=O)oc2cc1O [7-hydroxy-6-methoxycoumarin]
FXR-dependent activity, induction (1 mM): ineffectiveness

CC(C)CCC[C@@H](C)[C@H]1CC[C@H]2[C@@H]3C(=O)C=C4C[C@@H](O)CC[C@]4(C)[C@H]3CC[C@]12C [7-ketocholesterol]
FXR-dependent transcription, induction: not

COc1ccc2ccc(=O)oc2c1 [7-methoxycoumarin]
FXR-dependent activity, induction (1 mM): 10 fold

CC(C)CCC[C@@H](C)[C@H]1CC[C@H]2[C@@H]3[C@H](O)C=C4C[C@@H](O)CC[C@]4(C)[C@H]3CC[C@]12C [7α-hydroxycholesterol]
FXR-dependent transcription, induction: not

Nc1ncnc2c1nc(Br)n2[C@@H]1O[C@@H]2COP(=O)(O)O[C@H]2[C@H]1O [8-Br-cAMP]
FXR-dependent activity, induction (1 mM): 4 fold

COc1c2occc2cc2ccc(=O)oc12 [8-methoxypsoralen]
FXR-dependent CAT activity, induction (50 μM): inactive

CC(C)=CCc1c(O)cc(O)c2c1O[C@H](c1ccc(O)cc1)CC2=O [8-prenylnaringenin]
FXR-dependent CAT activity, induction (20 μM): 38 fold | FXR ACTIVITY (fold-induction) [1]: 38 fold-induction

CC(C)CCC[C@](C)(O)[C@H]1CC[C@H]2[C@@H]3CC=C4C[C@@H](O)CC[C@]4(C)[C@H]3CC[C@@]21C [20α-hydroxycholesterol]
FXR-dependent transcription, induction: 10 fold

CC(C)CC[C@H](O)[C@@H](C)[C@H]1CC[C@H]2[C@@H]3CC=C4C[C@@H](O)CC[C@]4(C)[C@H]3CC[C@]12C [22S-hydroxycholesterol]
FXR-dependent transcription, induction: not

COc1cc(O)c(CC=C(C)C)c2c1C(=O)CC(c1ccc(O)cc1)O2 (stereo not shown) [Isoxanthohumol]
FXR-dependent CAT activity, induction (20 μM): 9 fold | FXR ACTIVITY (fold-induction) [1]: 9 fold-induction

CC(C)=CCC1=C(O)C(C(=O)CC(C)C)=C(O)C(CC=C(C)C)(CC=C(C)C)C1=O [Lupulone]
FXR-dependent CAT activity, induction (20 μM): inert | FXR ACTIVITY (fold-induction) [1]: 1 fold-induction

CC1=C[C@H]2[C@@]3(O)[C@H](C)[C@@H](O)[C@]4(O)[C@H]([C@@H]3C=C(CO)C[C@]2(O)C1=O)C4(C)C [Phorbol]
FXR-dependent activity, induction (dose not stated): inactive

CCCCCc1cc(O)c2c(c1)OC(C)(C)[C@@H]1CCC(C)=C[C@@H]21 [THC, 1-trans-Δ^9-tetrahydrocannabinol]
FXR-dependent CAT activity, induction (15 μM): 5 fold

COC1=C(OC)C(=O)C(CC=C(C)C)=C(C)C1=O [U1, Ubiquinone-1]
inhibition of farnesol-induced FXR-dependent activity (10 μM): completely inhibited

COC1=C(OC)C(=O)C(C/C=C(\C)CC/C=C(\C)CCC=C(C)C)=C(C)C1=O [U3]
FXR-dependent activity, induction (dose not stated): 5 fold

COC1=C(OC)C(=O)C(C/C=C(\C)CC/C=C(\C)CC/C=C(\C)CCC=C(C)C)=C(C)C1=O [U4]
FXR-dependent activity, induction (dose not stated): 3 fold

COC1=C(OC)C(=O)C(C/C=C(\C)CC/C=C(\C)CC/C=C(\C)CC/C=C(\C)CC/C=C(\C)CCC=C(C)C)=C(C)C1=O [U6]
FXR-dependent activity, induction (dose not stated): inactive

COC1=C(OC)C(=O)C(C/C=C(\C)CC/C=C(\C)CC/C=C(\C)CC/C=C(\C)CC/C=C(\C)CC/C=C(\C)CC/C=C(\C)CCC=C(C)C)=C(C)C1=O [U8]
FXR-dependent activity, induction (dose not stated): inactive

COC1=C(OC)C(=O)C(C/C=C(\C)CC/C=C(\C)CC/C=C(\C)CC/C=C(\C)CC/C=C(\C)CC/C=C(\C)CC/C=C(\C)CC/C=C(\C)CCC=C(C)C)=C(C)C1=O [U9]
FXR-dependent activity, induction (dose not stated): inactive

COC1=C(OC)C(=O)C(C/C=C(\C)CC/C=C(\C)CC/C=C(\C)CC/C=C(\C)CC/C=C(\C)CC/C=C(\C)CC/C=C(\C)CC/C=C(\C)CC/C=C(\C)CCC=C(C)C)=C(C)C1=O [U10]
FXR-dependent activity, induction (dose not stated): inactive

COc1cc(O)c(CC=C(C)C)c(O)c1C(=O)/C=C/c1ccc(O)cc1 [Xanthohumol]
FXR ACTIVITY (fold-induction) (dose not given, 1 = no increase over vehicle): 1 fold-induction | FXR-dependent activity, induction (dose not stated): not activated

CCOC(=O)C=C(C)CCCC(C)(Cl)CCCC(C)(C)Cl (stereo not shown) [ZR232, ethyl ester of 7,11-dichloro-2-ene farnesoic acid]
FXR-dependent CAT activity, induction (50 μM): 5 fold

Nc1ncnc2nc[nH]c12 [adenine]
FXR-dependent activity, induction (dose not stated): ineffective

C=CCc1cc(OC)c2c(c1OC)OCO2 [apiole]
FXR-dependent CAT activity, induction (250 μM): 4 fold

CC(C)=CCC/C(C)=C/COc1c2ccoc2cc2oc(=O)ccc12 [bergamotin]
FXR-dependent activity, induction (25 μM): 8 fold | FXR ACTIVITY (fold-induction) (dose 25 μM): 10 fold-induction

C=CCC1=C(C)C(OC(=O)[C@@H]2[C@@H](C=C(C)C)C2(C)C)CC1=O (stereo partly shown) [bioallethrin]
FXR-dependent activity, induction (25 μM): 14 fold

C[C@@]12CCc3occc3[C@H]1CC[C@@]13C[C@@H](CC[C@H]12)[C@@](O)(CO)C3 [cafestol]
FXR ACTIVITY (fold-induction) [1]: 12 fold-induction

O=C(O)/C=C/c1ccc(O)c(O)c1 [caffeic acid]
FXR-dependent CAT activity, induction (250 μM): inactive | FXR ACTIVITY (fold-induction) (dose 100 μM, 1 = no increase over vehicle): 1 fold-induction

CCCCCc1cc(O)c2c(c1)OC(C)(C)c1ccc(C)cc1-2 [cannabinol]
FXR-dependent CAT activity, induction (15 μM): not

CNC(=O)Oc1cccc2ccccc12 [carbaryl]
FXR-dependent activity, induction (dose not stated): inactive

ClC1=C(Cl)C2(Cl)C3C(Cl)C(Cl)CC3C1(Cl)C2(Cl)Cl (stereo not shown) [chlordane]
FXR-dependent CAT activity, induction (5 μM): 7 fold | FXR ACTIVITY (fold-induction) (dose 5 μM): 7 fold-induction
